Laboratory results reported in US20160106789A1, “Inhibition of Neurodegenerative Disease by Grape Seed Extract, Green Tea Extract and Probiotic Bacteria” (priority 2013, published 2016).
Structures can show the parent of a compound that is named as a salt.

Columns and labels:
Alzheimer patients = assay: Effect on an Alzheimer patient: cognitive state and mini-mental state examination (MMSE); format: in vivo, human; details: daily, discontinued after two weeks; person, MMSE 13
Method: Six weeks after the diagnosis, the patient's condition continued to deteriorate. The patient was administered memantine hydrochloride (Ebixa® tablet), an antidementia medicine, on a daily basis. Blood-pressure reducing medication was concomitantly administered and the blood pressure was measured to be on the average of 130/70 systolic/diastolic. However, the patient's deterioration appeared to be unaffected by the drug and administration of Ebixa was consequently discontinued after two weeks.
The following four months were characterized by sporadic memory lapses typical of a moderately severe affliction as well as behavioral deteriorations that occurred from time to time
Consequently, the blood-pressure reducing medication was discontinued and the administration of GSE was reduced to one capsule per day (300 mg) as GSE is known to reduce blood pressure.

[1] = General effect on mental faculties (memory) of a first subject; format: in vivo, human; details: 100 mg once daily over 40 days, after nocturnal sleep, same subject after ceasing GSE
Method: A first subject consumed a capsule containing 300 mg of Meganatural-BP® over a period of 18 months, once daily, immediately after nocturnal sleep. […] The same subject ceased to consume GSE and immediately subsequent consumed capsules of 100 mg EGCG (Lyan) over a period of 40 days, once daily, immediately after nocturnal sleep. 300 mg of Meganatural-BP® and 60 mg of EGCG capsules were concomitantly administered to the same subject, immediately after nocturnal sleep, following the EGCG regime.

amyloid fibrils = details: in-vitro; cited from earlier work
β-amyloid peptides = details: cited from earlier work

Compound: CC12CC3CC(C)(C1)CC(N)(C3)C2 [memantine hydrochloride]
- patient's deterioration (Alzheimer patients): unaffected

Compound: Epigallocatechin-3-gallate [EGCG]
- improvement of memory [1]: No improvement of memory
- formation of β-sheet rich aggregation products such as amyloid fibrils (amyloid fibrils): prevented
- generation of β-amyloid peptides (β-amyloid peptides): reduces
